From patent US8501166B2, “Pyrimidinyl indole compounds” (Hutchison Medipharma Limited, priority 2010, dated 2013) come the findings set out here.

Assay [1] deals with OVA-induced airway inflammation. Nature of the assay: Ovalbumin (OVA)-induced pulmonary inflammation in mice. The class given is in vivo, Balb/c mice. Particulars: dexamethasone 1 mg/kg (qd). On the procedure: A compound of the present invention is tested in an OVA-induced pulmonary inflammation model in mice essentially as described in a method reported in the literature (Muriel Pichavant, Sho Goya, Eckard Hamelmann, Erwin W. Gelfand, and Dale T. Umetsu. Animal Models of Airway Sensitization. Current Protocols in Immunology. (1999) 15.18.1-15.18.13). Briefly, female Balb/c mice weighing from 18 to 20 g are sensitized by introperitoneal injection of 100 μL of saline containing 20 μg of OVA and 2 mg of aluminum hydroxide on day 1 and 14. On days 28, 29 and 30, mice are challenged once each by aerosolizing 1% ovalbumin (OVA) in phosphate buffered saline (PBS) for 20 minutes with Buxco Mass Dosing System. […] On day 32, animals from each group are anesthetized with 1% of pentobarbital sodium. The thoracic and abdominal cavities are opened and plasma is collected from centrifuged specimens. The trachea is then dissected and transected. Through the insertion of an 18-gauge catheter into the trachea, the lungs are lavaged with a total of 1.5 mL of sterile PBS and then placed into a specimen container. Cell-free BAL supernatants are obtained by centrifugation of BAL fluids. All serum and BAL supernatants are stored at −80° C. until use. Differential cell counts are performed on cytospin preparations of BAL cells for cell counting and cytokine determination. After the collection of BAL supernatants, the lungs of recipient mice are removed en bloc and fixed by an intratracheal instillation of 10% buffered formalin (in PBS). Three to six paraffin sections are obtained from the perihilar regions of recipient lungs, stained with hematoxylin and eosin, and examined under light microscopy for pathological study.

For assay [2], the system named is BxPC-3 cells. The experiment in a line: Cell viability test, combination study, BxPC-3. The class given is cell-based, human. Particulars: for Ave. Inhibition rate: 72 h. On the procedure: (§1) To evaluate biological activity of a compound in vitro, the cell viability test is applied, in which, IKKβ receptor plays an important role in cell survival and proliferation. Once the IKKβ pathway is blocked by inhibitors, a cell can go through apoptosis or death. The cell viability test provides information on cell survival after treatment with IKK inhibitors.
(§2) BxPC-3 cells (ATCC #CRL-1687; human pancreatic cancer cell line) are grown in Roswell Park Memorial Institute (RPMI) 1640 media (Gibco #A10491-01) supplemented with 10% fetal bovine serum (FBS) (Gibco #10099-141). Skov3-luc cells (ATCC, human ovarian carcinoma cell line) are grown in McCoy's 5a medium (Gibco#16600) supplemented with 10% FBS (Gibco#10099-141). For compound testing, BxPc-3 and Skov3-Luc cells are seeded at 2000 and 5000 cells/well respectively in 100 μL of corresponding media specified above for each cell line in 96-well plates 20 h prior to treatment. Cells are treated with a test compound at eight different concentrations in the presence of 0.5% DMSO for 72 h. Cell death in each well is determined by the addition of 20 μL of the One Solution Reagent (CELLTITER 96® AQueous One Solution Cell Proliferation Assay, Promega #G3580). After 2-4 h of incubation at 37° C., optical densities at 492 nm are measured with a microplate reader Inhibition of cell viability is determined by comparison to the control cells treated in the absence of a test compound.
(§3) For the combination study of the compound with other antitumor agents, BxPc-3 and Skov3-Luc cells are seeded at 2000 and 5000 cells/well respectively in 100 μL corresponding media specified above for each cell line in 96-well plates 20 h prior to the treatment. The cells are treated with the test compound at a number of concentrations for 30 minutes and then exposed to 5 ng/mL TNFα or 0.15-0.6 uM of VCR (vincristine sulfate) for an additional 72 hours. Cell death in each well is determined by the addition of 20 μL of the One Solution Reagent (CELLTITER 96® AQueous One Solution Cell Proliferation Assay, Promega #G3580). After 2-4 h of incubation at 37° C., optical densities at 492 nm are measured with a microplate reader Inhibition of cell viability is determined by comparison to the control cells treated in the absence of a test compound. For example, the results of the combination study with Example 1 are specially detailed in Table 2.

The subject of assay [3] is Skov3-luc cells. The experiment in a line: Cell viability test, combination study, Skov3-luc. The class given is cell-based. Particulars: Homo sapiens, 72 h, Vincristine 0.25 μM alone, read-out: Ave. Inhibition rate. On the procedure:
as §1, §2
as §3, with “The cells are treated with the test compound at a number of concentrations for 30 minutes and then exposed to 5 ng/mL TNFα or 0.15-0.6 uM of VCR (vincristine sulfate) for an additional 72 hours.” left out, “For example, the results of the combination study with Example 1 are specially detailed in Table 2.” left out

In assay [4] the test system is SKOV-3x-FF-luci human ovarian cancer xenograft. Nature of the assay: Antitumor effect in SKOV-3x-FF-luci xenograft with vincristine (VCR). The class given is in vivo, Balb/c nu/nu mice. Particulars: VCR alone at suboptimal dose, tail vein, once a week. On the procedure: In order to expand the anti-tumor spectrum, more combination testing is explored. Based on in vitro synergistic effect of Example 1 and VCR, the compound is tested for its anti-tumor effects in SKOV-3x-FF-luci xenograft in the presence/absence of VCR. The SKOV-3x-FF-luci human ovarian cancer line (ATCC) is cultured in McCoy's 5a medium containing 10% FCS. Female Balb/c nu/nu mice (6-7 weeks old) are peritoneally injected with 0.2 mL of cell suspension containing 2×10^6 cells. Mice are divided into nine groups six days after cell implantation. The test compound is orally administered twice a day at 60 mg/kg for 20 consecutive days or at 90 mg/kg with a 2 days on and 5 days off dosing schedule. VCR at 1 or 0.3 mg/kg is administered via tail vein injection, once a week. In the combination group, VCR is given 1 h after the administration of the test compound. Mice from the control group are administered with the oral vehicle (10% Acacia at pH2.1) and intraperitoneally injected with saline. At the end of the treatment, all mice are euthanized with CO2 and tumors in the peritoneal cavity, diaphragmatic muscle, mesenterium, liver, spleen, and ovaries are harvested with surgery scissors and weighted. […] In the combination group, tumor growth is inhibited by 76% and 74%. Compared with monotherapy, statistical significance is found between combination and monotherapy.

Where a name gives a salt, the structure may show the parent alone.

As for `C[C@@H]1C[C@H]2[C@@H]3CCC4=CC(=O)C=C[C@]4(C)[C@@]3(F)[C@@H](O)C[C@]2(C)[C@@]1(O)C(=O)CO` [Dexamethasone, reference compound], the “decrease of IL-13 in BALF” value in assay [1] came out at 77%.

Consider `CC[C@]1(O)C[C@H]2CN(CCc3c([nH]c4ccccc34)[C@@](C(=O)OC)(c3cc4c(cc3OC)N(C=O)[C@H]3[C@@](O)(C(=O)OC)[C@H](OC(C)=O)[C@]5(CC)C=CCN6CC[C@]43[C@@H]65)C2)C1` [Vincristine, vincristine sulfate, reference compound], for which the inhibition at 0.15 µM in assay [2] (Homo sapiens, BXPC-3, 72 h, Vincristine 0.15 μM alone, read-out: Ave. Inhibition rate) came to 5.73%. Further, in assay [2] (Vincristine 0.15 μM alone), the “Ave. Inhibition rate” value was determined as 9.48%. Further, the inhibition at 0.25 µM in assay [3] was 25%. Also, the tumor growth inhibition in assay [4] is on record as 38%.

As for TNFα, the “Ave. Inhibition rate” value in assay [2] (TNFα 5 ng/mL alone) is listed as 5.73%.
